Test results taken from PubChem BioAssay (NCI).
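These data come from cells grown in 96-well plates and exposed to compound for 48 hours at five concentrations. At the TGI there is no net growth.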

Key:
Test in all cases: growth of human tumour cells (NCI), 48 h
HL-60(TB) leukemia = tested on: HL-60(TB) leukemia
NCI-H226 lung = tested on: NCI-H226 lung
MDA-MB-435 = tested on: MDA-MB-435
T-47D breast = tested on: T-47D breast
K-562 leukemia = tested on: K-562 leukemia
ACHN renal = tested on: ACHN renal
NCI/ADR-RES ovarian = tested on: NCI/ADR-RES ovarian
SNB-19 CNS = tested on: SNB-19 CNS
LOX IMVI melanoma = tested on: LOX IMVI melanoma
U251 CNS = tested on: U251 CNS
CAKI-1 renal = tested on: CAKI-1 renal
SK-MEL-5 melanoma = tested on: SK-MEL-5 melanoma
SF-539 CNS = tested on: SF-539 CNS

Row | SMILES | TGI (HL-60(TB) leukemia) [µM] | TGI (NCI-H226 lung) [µM] | TGI (MDA-MB-435) [µM] | TGI (T-47D breast) [µM] | TGI (K-562 leukemia) [µM] | TGI (ACHN renal) [µM] | TGI (NCI/ADR-RES ovarian) [µM] | TGI (SNB-19 CNS) [µM] | TGI (LOX IMVI melanoma) [µM] | TGI (U251 CNS) [µM] | TGI (CAKI-1 renal) [µM] | TGI (SK-MEL-5 melanoma) [µM] | TGI (SF-539 CNS) [µM]
1 | O=c1oc2ccc([N+](=O)[O-])cc2nc1/C=C(\O)c1ccccc1 | > 100 | > 100 | > 100 | > 100 | > 100 | > 100 | > 100 | > 100 | > 100 | > 100 | > 100 | > 100 | 
2 | Cc1cc(C)cc(Nc2nnc3n2S(=O)(=O)c2cc(C)c(Cl)cc2S3)c1 | > 100 | 30.5 | 91.2 | > 100 | > 100 | 47.8 | 9.26 | 49.3 | 21.3 | 22.9 | > 100 | 24.7 | 13.7
3 | Oc1cc(O)c2c(c1)O[C@H](c1ccc(O)c(O)c1)[C@@H](O)C2 | > 100 | > 100 | > 100 | > 100 | > 100 | > 100 | > 100 | > 100 | > 100 | > 100 | > 100 | > 100 | > 100
4 | c1ccc(CN2CCC(=NN3CCCCC3)CC2)cc1 | 43.9 | > 100 | > 100 | > 100 | > 100 | > 100 | > 100 | > 100 | > 100 | > 100 | > 100 | > 100 | > 100
5 | Cc1ccc(S(=O)(=O)N(CC(O)COc2ccccc2)c2c(F)c(F)cc(F)c2F)cc1 (centres undefined) | 19.7 | 57.9 | 36.5 | 78.3 |  | 54.1 | 42 | 82.1 | 37.6 | 48.8 | 37.1 | 30.8 | 36
6 | O=C(N/N=C(/COc1ccccc1)N=Cc1ccncc1)c1ccncc1 | > 100 |  | > 100 | > 100 | > 100 | > 100 | > 100 | > 100 | > 100 | > 100 | > 100 |  | > 100
7 | CCOC(=O)NN(C(=O)OCC)c1ccc(N=Nc2ccc(OC)cc2)n1C | 50.5 | 97.2 | 56 | 76.2 | 71.4 | 58.2 | 94.6 |  | 41.5 | > 100 |  | 32.6 | 40.5
8 | CC(=O)O[C@@H]1[C@H](OC2CCCCC2(c2ccccc2)c2ccccc2)O[N+]([O-])=CC12CCCCC2 (some centres undefined) | 5.65 | 27.8 | 29.2 | 39.4 | > 100 | 31.4 | 30.5 |  | 46.2 | 30.7 | 27.5 | 28.2 | 37.8
9 | CN(C)CCCNC(=O)N/N=C/c1ccc(O)cc1 | > 100 | > 100 | > 100 | > 100 | > 100 | > 100 | > 100 | > 100 |  | > 100 | > 100 | > 100 | > 100
